According to patent US20260125382A1, “COMPOUNDS FOR INHIBITING OR DEGRADING CDK2 AND/OR CDK9 AND MEDICINAL USE THEREOF” (KOREA RESEARCH INSTITUTE OF CHEMICAL TECHNOLOGY, priority 2022, published 2026):

Legend:
[1] = biological target: T1, CDK2 (Homo sapiens, UniProt P24941); assay: CDK protein degradation activity (Western blotting), CDK2; type: cell-based; details: MDA-MB-231 cells, 16 hours, Western blot
T1 construct: endogenous in cells; host or cells: MDA-MB-231
Method in brief: (§1)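 Degradation is judged from CDK2 and CDK9 band intensity relative to tubulin and DMSO-treated cells, after 16 h exposure of MDA-MB-231 cells to three compound concentrations (100 nM, 1 μM, 10 μM).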

[2] = biological target: T2, CDK9 (Homo sapiens, UniProt P50750); assay: CDK protein degradation activity (Western blotting), CDK9; type: cell-based; details: MDA-MB-231 cells, 16 hours, Western blot
T2 construct: endogenous in cells; host or cells: MDA-MB-231
T2 sequence (P50750 whole entry): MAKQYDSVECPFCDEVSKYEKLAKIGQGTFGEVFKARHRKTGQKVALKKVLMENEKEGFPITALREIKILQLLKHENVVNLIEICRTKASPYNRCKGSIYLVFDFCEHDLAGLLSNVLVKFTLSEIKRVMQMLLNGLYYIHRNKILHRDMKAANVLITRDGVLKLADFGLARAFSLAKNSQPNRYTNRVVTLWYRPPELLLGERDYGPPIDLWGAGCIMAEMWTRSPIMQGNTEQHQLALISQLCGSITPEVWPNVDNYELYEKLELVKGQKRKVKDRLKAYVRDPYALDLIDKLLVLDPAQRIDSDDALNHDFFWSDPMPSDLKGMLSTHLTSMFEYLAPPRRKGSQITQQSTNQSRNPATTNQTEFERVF
Method in brief: as §1

| Compound | Enzyme degradation CDK2 (% remaining) @ 0.1 μM [1] [%] | Enzyme degradation CDK2 (% remaining) @ 1 μM [1] [%] | Enzyme degradation CDK2 (% remaining) @ 10 μM [1] [%] | Enzyme degradation CDK9 (% remaining) @ 0.1 μM [2] | Enzyme degradation CDK9 (% remaining) @ 1 μM [2] | Enzyme degradation CDK9 (% remaining) @ 10 μM [2] |
| --- | --- | --- | --- | --- | --- | --- |
| Cc1cccc(C(=O)N[C@H]2C[C@@H](n3cnc4c(NCc5cccc(OCC6CCN(C(=O)COc7ccc8c(c7)C(=O)N([C@H]7CCC(=O)NC7=O)C8=O)CC6)c5)ncnc43)C2)n1 [Compound 94, N-((1s,3s)-3-(6-((3-((1-(2-((2-(2,6-dioxopiperidin-3-yl)-1,3-dioxoisoindolin-5-yl)oxy)acetyl)piperidin-4-yl)methoxy)benzyl)amino)-9H-purin-9-yl)cyclobutyl)-6-methylpicolinamide] | 80 | 60 | 90 | 50% | 10% | 20% |
| Cc1cccc(C(=O)N[C@H]2C[C@@H](n3cnc4c(NCc5cccc(OCC6CCN(C(=O)CNc7ccc8c(c7)C(=O)N(C7CCC(=O)NC7=O)C8=O)CC6)c5)ncnc43)C2)n1 (stereo partly drawn) [Compound 96, N-((1s,3s)-3-(6-((3-((1-((2-(2,6-dioxopiperidin-3-yl)-1,3-dioxoisoindolin-5-yl)glycyl)piperidin-4-yl)methoxy)benzyl)amino)-9H-purin-9-yl)cyclobutyl)-6-methylpicolinamide] | 60 | 40 | 50 | 10% | 0% | 0% |
| Cc1cccc(C(=O)N[C@H]2C[C@@H](n3cnc4c(NCc5cccc(OCCCN6CCN(C(=O)COc7cccc8c7C(=O)N([C@H]7CCC(=O)NC7=O)C8=O)CC6)c5)ncnc43)C2)n1 [Compound 101, N-((1s,3s)-3-(6-((3-(3-(4-(2-((2-(2,6-dioxopiperidin-3-yl)-1,3-dioxoisoindolin-4-yl)oxy)acetyl)piperazin-1-yl)propoxy)benzyl)amino)-9H-purin-9-yl)cyclobutyl)-6-methylpicolinamide] | 70 | 50 | 40 | 80% | 30% | 30% |

The remaining lines, values ahead:

| Enzyme degradation CDK2 (% remaining) @ 0.1 μM [1] [%] | Enzyme degradation CDK2 (% remaining) @ 1 μM [1] [%] | Enzyme degradation CDK2 (% remaining) @ 10 μM [1] [%] | Enzyme degradation CDK9 (% remaining) @ 0.1 μM [2] | Enzyme degradation CDK9 (% remaining) @ 1 μM [2] | Enzyme degradation CDK9 (% remaining) @ 10 μM [2] | Compound |
| --- | --- | --- | --- | --- | --- | --- |
| 40 | 20 | 20 | 10% | 0% | 0% | Cc1cccc(C(=O)NC2CC(n3cnc4c(Nc5ccc(N6CCN(CC7CCN(C(=O)CNc8ccc9c(c8)C(=O)N([C@H]8CCC(=O)NC8=O)C9=O)CC7)CC6)cc5)ncnc43)C2)n1 (stereo partly drawn) [Compound 92, N-((1s,3s)-3-(6-((4-(4-((1-((2-(2,6-dioxopiperidin-3-yl)-1,3-dioxoisoindolin-5-yl)glycyl)piperidin-4-yl)methyl)piperazin-1-yl)phenyl)amino)-9H-purin-9-yl)cyclobutyl)-6-methylpicolinamide] |
| 0 | 10 | 10 | 0/0/0% | 0/0/0% | 0/0/0% | Cc1cccc(C(=O)NC2CC(n3cnc4c(Nc5ccc(N6CCN(CC7CCN(C(=O)CNc8cccc9c8C(=O)N([C@H]8CCC(=O)NC8=O)C9=O)CC7)CC6)cc5)ncnc43)C2)n1 (stereo partly drawn) [Compound 93, N-((1s,3s)-3-(6-((4-(4-((1-((2-(2,6-dioxopiperidin-3-yl)-1,3-dioxoisoindolin-4-yl)glycyl)piperidin-4-yl)methyl)piperazin-1-yl)phenyl)amino)-9H-purin-9-yl)cyclobutyl)-6-methylpicolinamide] |
